{"source": "patent US20210023223A1", "about": "“HYDROCARBON / LIPID - CAROTENOID COMPLEXES” (IP SCIENCE LIMITED, priority 2018, published 2021)", "key": {"[1]": {"experiment": "Size of beef fat globules, microscopy", "assay_type": "physicochemical", "from_the_text": "For measurement of lipid droplets and fat globules and quantification of their size binocular microscope Olympus BX41 was used with Cell^B software for morphometric analysis. All parameters were collected from 10 randomly selected microscopic fields at ×1000). In case of beef fat, lycopene incorporation led to a smaller increase of its fat globules, only by 30%, FIG. 3."}, "[2]": {"experiment": "Size of Sunflower Oil lipid droplets, microscopy", "assay_type": "physicochemical", "design": "Size of Sunflower Oil lipid droplets, Mean / Sunflower Oil lipid droplets, Droplet square: unit not given here", "from_the_text": "(§1) For measurement of lipid droplets and fat globules and quantification of their size binocular microscope Olympus BX41 was used with Cell^B software for morphometric analysis. All parameters were collected from 10 randomly selected microscopic fields at ×1000)."}, "[3]": {"test_system": "moderately obese volunteers", "experiment": "LDL-Px, serum LDL peroxidase proteins", "assay_type": "in vivo, human", "experimental": "Study Design. The total number of volunteers recruited to take part in the study was 18 (9 male and 9 female subjects) Caucasians 40-67 years old.\nProducts Formulated with Lycopene was developed and made by Lycotec Ltd. (Cambridge, United Kingdom). The daily dose was 1 capsule of 20 mg of lycopene, and it was taken with the main meal of the day. The period of administration was 1 month.\nLDL-Px and Lipoprotein O2. Activity of serum LDL peroxidase proteins, which include IgG with superoxide dismutase activity, was measured as described previously. Plasma oxygen, which carried by blood lipids/lipoproteins was measured by catalymetry."}, "[4]": {"experiment": "Size of Olive oil lipid droplets, microscopy", "assay_type": "physicochemical", "design": "Olive oil lipid droplets, Droplet square: unit not given here", "experimental": "as §1\nWhen lycopene was added to olive oil, rich with monounsaturated fatty acids, it increased the size of its lipid droplets in a dose-dependent manner, and table 4."}, "[5]": {"test_system": "middle-aged volunteers, facial skin", "experiment": "Lycopene trial, facial skin surface material", "assay_type": "in vivo, human", "settings": "7 mg formulated lycopene daily, 4 weeks", "experimental": "Group II—15 middle-aged (7 males and 8 females, 48-65 years old) for lycopene intervention and\nGroup II—participants received 7 mg formulated lycopene,\nDaily dose of each carotenoid product was taken in one capsule with the main evening meal for 4 weeks (from day 1 to day 28 of the study).\nFor RSSC sample collection all participants of the study were requested to avoid facial hygienic manipulations for 24 hours before material collection, which was carried out in the morning. These samples were collected only before initiation of astaxanthin supplementation (day 0) and at the end of the study (day 29). RSSC sample collection and preparation was performed according to previously described procedures. Briefly, RSSC samples were collected using polyester swabs from the surface of the facial skin (the sides of the nose). During the procedure two samples were taken (one swab per side). Each collected sample was placed on the surface of a microscope slide. A second microscope slide was pressed against the surface of the first one. […] All slides with collected samples (i.e. four slides per study participant per time point) were coded to provide sample anonymity for blinded analysis. All collected samples were sent to the laboratory of Lycotec Ltd for further processing and eventual microscopic examination.\nFor morphological analysis of RSSC samples one slide of the first pair was stained with hematoxylin and eosin in order to identify any cells or cell remnants. The second slide was stained using Oil Red O (Lipid Stain, ab150678, Abcam, Cambridge, UK) for lipid visualization and lipid droplet size evaluation. One slide from the other pair was stained with crystal violet solution (Gram staining) to assess the level of microorganism presence. The remaining slides were kept unstained for possible future use.\nThe analysis of typical structural elements of the RSSC comprised lipid droplet measurements, counting characteristic lipid crystals and desquamated corneocytes, and evaluation of bacterial presence as previously described. The indicated micro objects/structures were quantified using Cell^B imaging software (Digital Imaging Solutions, Olympus, Japan). All microscopic samples were blinded before their examinations.\nSmears collected from the surface of the facial skin were fixed with methanol. Permeabilised corneocytes and sebum present in the material were stained for direct immunofluorescence using fluorescein isothiocyanate-conjugated monoclonal antibody against lycopene recently generated by our group. Fluorescent staining was visualised using Nikon Eclipse 50i microscope with fluorescence attachment. The semi-quantitative analysis was based on visually assessing fluorescence levels in corneocytes and surrounding sebum in 20 random fields of view at ×200 magnification. Fluorescence intensity in the samples was classified using the following scoring system: 0—no fluorescence; 0.5—traces of fluorescence; 1—weak fluorescence; 2—moderate fluorescence; 3—strong fluorescence of some cells or areas of sebum background; 4—extremely strong fluorescence (confluent fluorescent elements within corneocytes). Fluorescence assessment in each sample was repeated blindly three times."}, "[6]": {"experiment": "Hydrophobicity as oxygen gas solubility (micellar red-ox catalymetry)", "assay_type": "physicochemical", "from_the_text": "It is known that gas molecules are more soluble in hydrophobic domains than in polar structures or liquids. For example, solubility of molecular oxygen could be 4 to 10 fold greater in intact lipid membrane than in a surrounding aqueous solution [1-5]. In other words one can use the measure of soluble gas in lipids, or other […], as a measure of its hydrophobicity. This approach seem logical, however to the best of our knowledge has never been published.\nHere we describe a new method to measure hydrophobicity of lipids as a function of concentration of soluble molecular oxygen within their matrix.\nThere are a number of ways to measure molecular oxygen in solid, crystal and indeed lipid structures. Almost all of them are physical methods such as ESR [1] or polarography. However, we decided to use much simpler and faster micellar acceleration red-ox catalymetry. This test can measure O2 in a dozen parallel samples not only lipids in model systems but also in circulating lipoproteins from human blood.\nThe physical expansion of the size of the oil droplets observed in the above experiments was estimated by independent measurements on changes in their hydrophobicity. […] With this approach it was possible to detect these changes when ratio lycopene to fatty acids reached 1 to 10,000 and then it was a dose dependent effect. This rise reached its plateau level at the ratio 1:4,000."}, "[7]": {"settings": "lycopene dose 0.1 per 30 g of the oil"}, "[8]": {"settings": "lycopene dose 0.5 per 30 g of the oil"}, "[9]": {"settings": "lycopene dose 1.0 per 30 g of the oil"}, "[10]": {"settings": "lycopene dose 2.0 per 30 g of the oil"}, "[11]": {"settings": "lycopene dose 3.5 per 30 g of the oil"}, "[12]": {"settings": "lycopene dose 7.0 per 30 g of the oil"}, "[13]": {"settings": "lycopene dose 10.0 per 30 g of the oil"}, "[14]": {"settings": "lycopene dose 0.1 per 30 g of Olive oil"}, "[15]": {"settings": "lycopene dose 0.5 per 30 g of Olive oil"}, "[16]": {"settings": "lycopene dose 1.0 per 30 g of Olive oil"}, "[17]": {"settings": "lycopene dose 2.0 per 30 g of Olive oil"}, "[18]": {"settings": "lycopene dose 3.5 per 30 g of Olive oil"}, "[19]": {"settings": "lycopene dose 7.0 per 30 g of Olive oil"}, "[20]": {"settings": "lycopene dose 10.0 per 30 g of Olive oil"}}}
{"smiles": "CC(C)=CCC/C(C)=C/C=C/C(C)=C/C=C/C(C)=C/C=C/C=C(C)/C=C/C=C(C)/C=C/C=C(\\C)CCC=C(C)C", "note": "[Lycopene]", "values": [{"measurement": "Increase of beef fat globules", "setting": "[1]", "value": 30, "unit": "%"}, {"measurement": "Size of Sunflower Oil lipid droplets, Mean", "setting": "[2]; [7]", "value": 65.16}, {"measurement": "Sunflower Oil lipid droplets, Droplet square", "setting": "[2]; [7]", "value": 0.36}, {"measurement": "Size of Sunflower Oil lipid droplets, Mean", "setting": "[2]; [8]", "value": 144.82}, {"measurement": "Sunflower Oil lipid droplets, Droplet square", "setting": "[2]; [8]", "value": 1.20}, {"measurement": "Size of Sunflower Oil lipid droplets, Mean", "setting": "[2]; [9]", "value": 79.73}, {"measurement": "Sunflower Oil lipid droplets, Droplet square", "setting": "[2]; [9]", "value": 0.72}, {"measurement": "Size of Sunflower Oil lipid droplets, Mean", "setting": "[2]; [10]", "value": 149.25}, {"measurement": "Sunflower Oil lipid droplets, Droplet square", "setting": "[2]; [10]", "value": 1.32}, {"measurement": "Size of Sunflower Oil lipid droplets, Mean", "setting": "[2]; [11]", "value": 286.00}, {"measurement": "Sunflower Oil lipid droplets, Droplet square", "setting": "[2]; [11]", "value": 4.03}, {"measurement": "Size of Sunflower Oil lipid droplets, Mean", "setting": "[2]; [12]", "value": 202.78}, {"measurement": "Sunflower Oil lipid droplets, Droplet square", "setting": "[2]; [12]", "value": 3.44}, {"measurement": "Size of Sunflower Oil lipid droplets, Mean", "setting": "[2]; [13]", "value": 434.81}, {"measurement": "Sunflower Oil lipid droplets, Droplet square", "setting": "[2]; [13]", "value": 20.71}, {"measurement": "Increase in lipid droplet diameter, could reach", "setting": "[2]; sunflower oil", "value": 20, "unit": "fold"}, {"measurement": "LDL-Px", "setting": "[3]; after 20 mg lycopene daily for one month", "value": "286 ± 29^ ELISA × 10^3"}, {"measurement": "LDL-Px", "setting": "[3]; before, n = 18", "value": "545 ± 49^ ELISA × 10^3"}, {"measurement": "Olive oil lipid droplets, Droplet square", "setting": "[4]; [14]", "value": 27.2}, {"measurement": "Size of Olive oil lipid droplets, Mean", "setting": "[4]; [14]", "value": 46.24, "unit": "μm"}, {"measurement": "Olive oil lipid droplets, Droplet square", "setting": "[4]; [15]", "value": 36.36}, {"measurement": "Size of Olive oil lipid droplets, Mean", "setting": "[4]; [15]", "value": 40.00, "unit": "μm"}, {"measurement": "Olive oil lipid droplets, Droplet square", "setting": "[4]; [16]", "value": 10.29}, {"measurement": "Size of Olive oil lipid droplets, Mean", "setting": "[4]; [16]", "value": 185.13, "unit": "μm"}, {"measurement": "Olive oil lipid droplets, Droplet square", "setting": "[4]; [17]", "value": 17.39}, {"measurement": "Size of Olive oil lipid droplets, Mean", "setting": "[4]; [17]", "value": 260.80, "unit": "μm"}, {"measurement": "Olive oil lipid droplets, Droplet square", "setting": "[4]; [18]", "value": 24.05}, {"measurement": "Size of Olive oil lipid droplets, Mean", "setting": "[4]; [18]", "value": 457.00, "unit": "μm"}, {"measurement": "Olive oil lipid droplets, Droplet square", "setting": "[4]; [19]", "value": 61.31}, {"measurement": "Size of Olive oil lipid droplets, Mean", "setting": "[4]; [19]", "value": 490.50, "unit": "μm"}, {"measurement": "Olive oil lipid droplets, Droplet square", "setting": "[4]; [20]", "value": 36.77}, {"measurement": "Size of Olive oil lipid droplets, Mean", "setting": "[4]; [20]", "value": 367.70, "unit": "μm"}, {"measurement": "Increase in lipid droplet diameter, could reach", "setting": "[4]; olive oil", "value": 20, "unit": "fold"}, {"measurement": "Bacterial load on the surface of the skin", "setting": "[5]", "value": "significant reduction of the bacterial load"}, {"measurement": "Lycopene presence in desquamated corneocytes", "setting": "[5]", "value": "significantly increased for the whole period of supplementation"}, {"measurement": "Lycopene presence in sebum", "setting": "[5]", "value": "lycopene amount growth only during the first two weeks of supplementation"}, {"measurement": "Rate of desquamation of corneocytes", "setting": "[5]", "value": "noticeably lower"}, {"measurement": "Sebum production", "setting": "[5]", "value": "significant increase of the sebum production"}, {"measurement": "Hydrophobicity in terms of gas solubility", "setting": "[6]; ratio of molecules of lycopene per molecules of fatty acids 1:3,000", "value": "248-287 10^−6 M O2 per mg of sunflower oil"}, {"measurement": "Hydrophobicity in terms of gas solubility", "setting": "[6]; ratio of molecules of lycopene per molecules of fatty acids 1:4,000", "value": "275-321 10^−6 M O2 per mg of sunflower oil"}, {"measurement": "Hydrophobicity in terms of gas solubility", "setting": "[6]; ratio of molecules of lycopene per molecules of fatty acids 1:5,000", "value": "197-198 10^−6 M O2 per mg of sunflower oil"}, {"measurement": "Hydrophobicity in terms of gas solubility", "setting": "[6]; ratio of molecules of lycopene per molecules of fatty acids 1:10,000", "value": "180-182 10^−6 M O2 per mg of sunflower oil"}, {"measurement": "Hydrophobicity in terms of gas solubility", "setting": "[6]; ratio of molecules of lycopene per molecules of fatty acids 1:20,000", "value": "143-155 10^−6 M O2 per mg of sunflower oil"}]}
